Data as given in patent US20220023257A1, “TREATMENT OF DEMENTIA-ASSOCIATED TAUOPATHIES” (Medizinische Hochschule Hannover (MHH), priority 2018, published 2022).

How the values were obtained:
[1] = tested on: eGFP-Tau[R406W]-infected primary cortical neurons; assay: Tau tangle formation and apoptosis in eGFP-Tau[R406W]-infected primary cortical neurons; format: cell-based, mice; settings: 50 μM Amisulpride for three days, DIV 10-13
Source text: White boxes and its corresponding magnifications show representative neurons with and without tau tangles. Arrow heads indicate cells that were counted as tangle-positive. B. Quantification of tau tangles. The number of tangle-positive neurons was counted in a confined area in 6 independent experiments and is represented as a fraction of total number of infected neurons. * indicates statistical significance of p<0.05; ** p<0.01 (N=6; total analyzed cells […], one-way ANOVA, followed by Dunnett's post hoc test). C. […] D. Representative images of DIV14 primary cortical WT neurons infected at DIV10 either with AAV constructs encoding eGFP (white) or eGFP-Tau[R406W] (green). […] Fluorescence from cleaved substrate of active caspase3/7 indicating apoptosis is shown. E. Quantification of apoptosis. Apoptotic cells showing caspase3/7 activity were counted in a confined area in 6 independent experiments and are represented as a fraction of total number of infected neurons.
A. Scheme showing experimental design. […] Neurons were analyzed at DIV 13. […] Arrowheads indicate cells that were counted as tangle-positive. […] Quantification of Tau tangles. The number of tangle-positive neurons was counted in a confined area in at least four independent experiments and is represented as a fraction of the total number of infected neurons. […] GAPDH expression was detected in a soluble fraction. […]

[2] = molecular target: T1, 5-HT7R (Homo sapiens, UniProt P34969); assay: 5-HT7R-induced Tau aggregation in HEK293 Tau-BiFC cells; format: cell-based; settings: HEK293 Tau-BiFC cells transfected with CFP-5-HT7R; maximum intensity projections
T1 construct: HA (N); expressed in transfected cells; host or cells: N1E-115 (neuroblastoma cells)
Source text: Signals are normalized to DMSO-treated pcDNA-transfected cells. Data are represented as means+SDs (N=3). *** indicates statistical significance of p<0.001, n.s. not statistically different (one-way ANOVA, followed by Turkey's post hoc test). […] Representative maximum intensity projections of HEK293 Tau-BiFC cells transfected with control vector (mCerulean, blue) or 5-HT7R (CFP-5-HT7R, blue) upon the indicated treatment. […] Membranes were probed with total Tau (Abcam) and GAPDH antibody (Millipore). Signals are normalized to DMSO-treated pcDNA-transfected cells. Data are represented as means+SDs (N=3). ** indicates statistical significance of p<0.01, *** p<0.001, n.s. not statistically different (one-way ANOVA, followed by Turkey's post hoc test). […] HEK293 Tau-BiFC cells were transfected with (HA)5-HT7R and treated with the indicated concentration of Amisulpride.

[3] = tested on: WT mice injected with AAV-eGFP-Tau[R406W]; assay: Tau hyperphosphorylation and recency test in WT mice after AAV-eGFP-Tau[R406W] injection into the prefrontal cortex; format: in vivo; settings: intraperitoneal, once daily for 16 days
Description: A. Scheme showing experimental design: AAV-eGFP-Tau[R406W] was injected stereotactically into the prefrontal cortex (PFC) of WT mice. After 3 weeks of recovery time, animals were intraperitoneally injected with either Vehicle or Amisulpride once daily for 16 days. B. Staining of prefrontal cortical slices of mice after AAV injection and treatment with phospho-specific Tau antibody T205. Representative overview image and magnification are shown. C. Quantification of the mean intensities of eGFP-Tau and pTau over the whole slice and calculation of the pTau/Tau ratio. Data are shown as mean+SEM (N=5). * indicates statistical significance of p<0.05 (one-tailed unpaired t-test). D. Results of test for temporal order recognition memory (recency test). Quantification of exploration time spent with less recent (L) and recent (R) object and discrimination index. Data are presented as mean+SEM (9≥N≥7). * indicates statistical significance of p<0.05, ** p<0.01; n.s., not statistically different (paired t-test and Wilcoxon signed rank test were applied to analyze exploration time, one-way ANOVA was applied to analyze the discrimination ratio).

T1 sequence (P34969 whole entry): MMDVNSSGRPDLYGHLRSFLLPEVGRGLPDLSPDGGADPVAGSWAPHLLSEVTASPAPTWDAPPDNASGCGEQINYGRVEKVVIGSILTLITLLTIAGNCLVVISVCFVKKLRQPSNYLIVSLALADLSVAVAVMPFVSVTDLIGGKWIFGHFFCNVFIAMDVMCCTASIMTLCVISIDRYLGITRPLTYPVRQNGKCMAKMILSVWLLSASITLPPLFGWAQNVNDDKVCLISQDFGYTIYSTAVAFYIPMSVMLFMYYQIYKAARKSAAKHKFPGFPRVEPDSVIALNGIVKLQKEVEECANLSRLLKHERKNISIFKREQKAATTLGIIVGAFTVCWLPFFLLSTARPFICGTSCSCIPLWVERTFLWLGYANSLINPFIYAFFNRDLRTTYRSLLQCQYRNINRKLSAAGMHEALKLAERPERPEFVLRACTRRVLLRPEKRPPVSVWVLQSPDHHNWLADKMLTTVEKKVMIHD

SMILES: CCN1CCCC1CNC(=O)c1cc(S(=O)(=O)CC)c(N)cc1OC (centres unmarked) [Amisulpride]
- 5-HT7R-induced Tau tangle formation [1]: reduced
- apoptosis (caspase3/7 activity) [1]: reduced
- Tangles of Venus-Tau (VN-Tau) in 5-HT7R-transfected cells [2]: disappeared
- Tau[R406W]-induced memory impairments (recency test) [3]: ameliorates
- Tau[R406W]-induced Tau hyperphosphorylation (pTau/Tau ratio, T205 staining) ([3]; prefrontal cortical slices): ameliorates
